Measurements published in ChEMBL document CHEMBL6096690, “Synthesis and Biological Evaluation of Peripheral HTR2A Antagonists for Colorectal Cancer” (J Med Chem, 2025).
Activity calls are given as the source filed them. No cut-off for these calls is given here.

Experiments:
[1] = target: 5-hydroxytryptamine receptor 6 (Homo sapiens) (UniProt P50406); experiment: Inhibition of 5HTR6 (unknown origin) at 1 uM relative to control
[2] = Microsomal stability in rat liver microsomes assessed as parent compound remaining measured after 30 mins; type: ADME, Microsome; details: read-out: Stability
[3] = target: CYP2C19 (Homo sapiens, UniProt P33261); experiment: Inhibition of CYP2C19 (unknown origin) at 10 uM relative to control; type: ADME
[4] = Drug concentration in male ICR mouse brain at 10 mg/kg, ip measured after 1 hr; type: ADME, organism-based; details: read-out: Ct
[5] = test system: SW-620; experiment: Antiproliferative activity against human SW620 cells assessed as inhibition of cell proliferation at 1.5 to 12.5 uM by CCK-8 assay; type: functional, cell-based; details: dose 1.5-12.5 µM, time 24-48 hrs
[6] = test system: HCT-116; experiment: Antiproliferative activity against human HCT-116 cells assessed as inhibition of cell proliferation at 1.5 to 12.5 uM by CCK-8 assay; type: functional, cell-based; details: dose 1.5-12.5 µM, time […]
[7] = test system: HCT-116; experiment: Antitumor activity against human HCT-116 cells xenografted in male athymic nude BALB/c mouse assessed as increase in cleaved caspase 3 expression at 10 mg/kg, ip measured after 19 days by Immunohistochemical analysis; type: functional, organism-based; details: time 19.0 day
[8] = test system: CCD-18Co; experiment: Cytotoxicity against human CCD-18Co cells assessed as inhibition of cell proliferation incubated for 24 to 48 hrs by CCK-8 assay; type: toxicity, cell-based; details: dose lower 1.5 µM, time lower 24 hrs, dose upper 12.5 µM, time upper 48 hrs
[9] = Drug concentration in male ICR mouse plasma at 10 mg/kg, ip measured after 1 hr; type: ADME, organism-based
[10] = test system: SW-620; experiment: Antitumor activity against human SW620 cells xenografted in male athymic nude BALB/c mouse assessed as tumor growth inhibition administered intraperitoneally once daily relative to control; type: functional; details: dose 10-50 mg/kg, route ip
[11] = test system: SW-620; experiment: Induction of cell cycle arrest at sub-G1 phase in human SW620 cells assessed as increase in p21 protein expression at 5 to 10 uM incubated for 24 hrs by Western blotting analysis; type: functional, cell-based; details: dose 5-10 µM
[12] = target: T1, 5-hydroxytryptamine receptor 2B (Homo sapiens, UniProt P41595); experiment: Inhibition of 5HTR2B (unknown origin) at 1 uM relative to control
[13] = test system: HCT-116; experiment: Induction of cell cycle arrest in human HCT-116 cells assessed as increase in sub-G1 phase cells incubated for 24 hrs by PI/RNase staining based flow cytometric analysis; type: functional; details: dose 5-10 µM
[14] = test system: RKO; experiment: Antiproliferative activity against human RKO cells assessed as inhibition of cell proliferation incubated for 24 to 48 hrs by CCK-8 assay; type: functional, cell-based; details: dose 1.5-12.5 µM, time 24-48 hrs
[15] = Drug concentration in male ICR mouse plasma at 10 mg/kg, ip measured after 3 hr; type: ADME, organism-based
[16] = AUCt in male mouse at 2 mg/kg, iv; type: ADME, organism-based; details: in vivo
[17] = Half life in male mouse at 2 mg/kg, iv; type: ADME, organism-based; details: in vivo
[18] = test system: HCT-116; experiment: Antiproliferative activity against human HCT-116 cells assessed as inhibition of cell proliferation incubated for 24 to 48 hrs by CCK-8 assay; type: functional, cell-based; details: dose 1.5-12.5 µM, time 24-48 hrs
[19] = test system: SW-620; experiment: Induction of apoptosis in human SW620 cells assessed as increase in cleaved PARP expression incubated for 24 hrs by Western blotting analysis; type: functional, cell-based; details: dose 5-10 µM
[20] = test system: CCD-18Co; experiment: Cytotoxicity against human CCD-18Co cells assessed as inhibition of cell proliferation at 1.5 to 12.5 uM by CCK-8 assay; type: toxicity, cell-based; details: dose lower 1.5 µM, time lower 24 hrs, dose upper 12.5 µM, time upper 48 hrs
[21] = test system: RKO; experiment: Antiproliferative activity against human RKO cells assessed as inhibition of cell proliferation at 1.5 to 12.5 uM by CCK-8 assay; type: functional, cell-based; details: dose 1.5-12.5 µM, time 24-48 hrs
[22] = target: 5-hydroxytryptamine receptor 5A (Homo sapiens) (UniProt P47898); experiment: Inhibition of 5HTR5A (unknown origin) at 1 uM relative to control
[23] = test system: SW480; experiment: Antiproliferative activity against human SW480 cells assessed as inhibition of cell proliferation incubated for 24 to 48 hrs by CCK-8 assay; type: functional, cell-based; details: dose 1.5-12.5 µM, time 24-48 hrs
[24] = test system: HCT-116; experiment: Antitumor activity against human HCT-116 cells xenografted in male athymic nude BALB/c mouse assessed as tumor growth inhibition at 1 mg/kg, ip measured after 19 days relative to control; type: functional; details: HCT-116, 456 h, time 19 day, read-out: TGI
[25] = test system: SW-620; experiment: Antitumor activity against human SW620 cells xenografted in male athymic nude BALB/c mouse assessed as tumor growth inhibition at 50 mg/kg, ip administered once daily relative to control; type: functional; details: read-out: TGI
[26] = test system: HCT-116; experiment: Induction of apoptosis in human HCT-116 cells assessed as increase in apoptotic cells at 5 to 10 uM incubated for 24 hrs by Annexin V/propidium iodide staining based FACS assay; type: functional, cell-based; details: dose 5-10 µM
[27] = target: T1, 5-hydroxytryptamine receptor 2B; experiment: Inhibition of 5HTR2B (unknown origin)
[28] = test system: HCT-116; experiment: Induction of apoptosis in human HCT-116 cells assessed as upregulation of total P53 protein expression at 5 to 10 uM incubated for 24 hrs by Western blotting analysis; type: functional, cell-based; details: dose 5-10 µM
[29] = test system: SW-620; experiment: Induction of apoptosis in human SW620 cells assessed as increase in cleaved caspase 3 expression incubated for 24 hrs by Western blotting analysis; type: functional, cell-based; details: dose 5-10 µM

T1 sequence (P41595 whole entry): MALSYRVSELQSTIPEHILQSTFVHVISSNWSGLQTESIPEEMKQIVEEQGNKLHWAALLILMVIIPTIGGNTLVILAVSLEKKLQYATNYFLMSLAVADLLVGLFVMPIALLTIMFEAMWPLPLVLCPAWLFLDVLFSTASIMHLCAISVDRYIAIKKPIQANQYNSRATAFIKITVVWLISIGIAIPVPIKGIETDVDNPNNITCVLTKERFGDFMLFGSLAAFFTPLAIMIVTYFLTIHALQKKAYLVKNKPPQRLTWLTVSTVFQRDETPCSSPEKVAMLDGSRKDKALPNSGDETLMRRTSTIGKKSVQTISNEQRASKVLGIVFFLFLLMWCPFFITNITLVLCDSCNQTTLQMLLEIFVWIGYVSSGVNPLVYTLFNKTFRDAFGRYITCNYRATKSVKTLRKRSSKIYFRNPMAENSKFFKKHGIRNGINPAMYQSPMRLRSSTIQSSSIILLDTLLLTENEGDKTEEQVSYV
Chain of CYP2C19 (P33261 whole entry): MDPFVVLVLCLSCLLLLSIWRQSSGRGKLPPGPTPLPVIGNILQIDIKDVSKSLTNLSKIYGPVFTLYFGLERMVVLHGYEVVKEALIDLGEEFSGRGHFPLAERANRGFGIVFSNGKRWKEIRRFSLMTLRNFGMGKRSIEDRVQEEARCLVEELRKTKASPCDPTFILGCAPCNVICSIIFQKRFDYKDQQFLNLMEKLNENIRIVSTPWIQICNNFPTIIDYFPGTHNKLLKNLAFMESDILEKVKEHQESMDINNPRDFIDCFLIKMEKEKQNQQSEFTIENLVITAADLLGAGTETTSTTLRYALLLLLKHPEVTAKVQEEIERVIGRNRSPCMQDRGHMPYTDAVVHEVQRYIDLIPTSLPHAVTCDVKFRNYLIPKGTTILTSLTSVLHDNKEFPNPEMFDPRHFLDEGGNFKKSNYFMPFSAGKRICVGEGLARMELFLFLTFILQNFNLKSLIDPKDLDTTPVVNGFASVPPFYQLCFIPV
Chain of 5-hydroxytryptamine receptor 6 (Homo sapiens) (P50406 whole entry): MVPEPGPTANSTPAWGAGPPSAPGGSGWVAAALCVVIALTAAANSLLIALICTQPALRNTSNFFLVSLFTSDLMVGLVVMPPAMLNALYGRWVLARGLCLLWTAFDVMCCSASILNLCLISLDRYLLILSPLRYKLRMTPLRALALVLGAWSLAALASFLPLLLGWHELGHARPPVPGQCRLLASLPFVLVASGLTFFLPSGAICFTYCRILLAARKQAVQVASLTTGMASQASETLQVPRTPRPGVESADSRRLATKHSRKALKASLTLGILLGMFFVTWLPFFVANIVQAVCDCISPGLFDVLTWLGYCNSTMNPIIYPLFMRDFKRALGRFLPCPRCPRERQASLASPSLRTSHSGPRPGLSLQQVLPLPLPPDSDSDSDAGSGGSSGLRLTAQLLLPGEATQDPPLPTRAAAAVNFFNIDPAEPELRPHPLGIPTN
Chain of 5-hydroxytryptamine receptor 5A (Homo sapiens) (P47898 whole entry): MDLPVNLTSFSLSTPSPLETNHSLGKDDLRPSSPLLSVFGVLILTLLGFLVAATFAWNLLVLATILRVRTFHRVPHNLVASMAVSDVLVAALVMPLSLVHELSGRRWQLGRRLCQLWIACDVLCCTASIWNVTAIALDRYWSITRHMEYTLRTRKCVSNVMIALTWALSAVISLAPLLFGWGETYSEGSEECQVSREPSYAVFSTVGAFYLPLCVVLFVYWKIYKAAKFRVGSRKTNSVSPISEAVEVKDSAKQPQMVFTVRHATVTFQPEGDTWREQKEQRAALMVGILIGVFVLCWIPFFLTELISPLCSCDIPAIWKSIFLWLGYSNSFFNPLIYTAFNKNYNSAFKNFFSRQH

With `Cl.Cl.O=C(NCc1ccc(OCC(O)CN2CCN(c3noc4cc(F)ccc34)CC2)cc1)N(Cc1ccc(F)cc1)C1CCNCC1` (centres undefined) the inhibition [1] was -5%, the remaining at 0.5 h [2] was 95.3% and the inhibition at 10 µM [3] was 21%. The concentration at 1 h [4] was less than 0.5 ng/g, the Activity [5] was “Time-dependent-effect” and the Activity [6] was “Time-dependent-effect”. For the same compound, the Activity [7] was “Active”, the Activity [8] was “Dose-dependent-effect” and the concentration at 1 h [9] was 0.463 µg/mL. For the same compound, the Activity [10] was “Dose-dependent-effect”, the Activity [11] was “Active” and the inhibition [12] was 84.8%. For the same compound, the Activity [13] was “Dose-dependent-effect”, the Activity [14] was “Dose-dependent-effect” and the concentration at 3 h [15] was 0.271 µg/mL. The AUC(0-t) [16] was 0.3 µg·h/mL, the half-life [17] was 13.9 h and the Activity [18] was “Dose-dependent-effect”. The Activity [19] was “Dose-dependent-effect”, the Activity [20] was “Time-dependent-effect” and the Activity [21] was “Time-dependent-effect”. For the same compound, the inhibition [22] was 10%, the Activity [23] was “Dose-dependent-effect” and the inhibition in vivo at 1 mg/kg [24] was 38.8%. The inhibition in vivo at 50 mg/kg [25] was 46.9%, the Activity [26] was “Active” and the IC50 [27] was 0.621 µM. For the same compound, the Activity [28] was “Active” and the Activity [29] was “Dose-dependent-effect”.
